Measured values: US6512000B1, “Aminocarbonyl-substituted benzimidazoles having tryptase-inhibitory activity” (Boehringer Ingelheim Pharma KG, priority 1999, dated 2003)

Target: T1, rh beta tryptase (Homo sapiens, UniProt P20231)
T1 construct: purchased Promega
Test: Tryptase inhibition test (cleavage of N-p-tosyl-Gly-Pro-Lys-para-nitroaniline, p-nitroaniline measured at 405 nm)
Format: biochemical
Conditions: pH 7.4, 37° C.; for IC50: concentration at which 50% of the tryptase enzyme activity is inhibited, substrate 0.6 mM
Procedure, shortened: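 Screening at 10 μM gives percent inhibition, with IC50 derived for compounds above 70% inhibition. Enzyme: rh beta tryptase, 0.91 U/ml, pH 7.4 Tris HCl (100 mM), 5 mM Ca, 100 mg/ml heparin. After 5 min compound pre-incubation, 0.6 mM pNA substrate cleaved 5 min at 37 °C, monitored at 405 nm.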

[1] = inhibition of rh beta tryptase at 10 μM test substance, substrate N-p-tosyl-Gly-Pro-Lys-para-nitroaniline 0.6 mM, 5 minutes

T1 sequence (P20231 31-275): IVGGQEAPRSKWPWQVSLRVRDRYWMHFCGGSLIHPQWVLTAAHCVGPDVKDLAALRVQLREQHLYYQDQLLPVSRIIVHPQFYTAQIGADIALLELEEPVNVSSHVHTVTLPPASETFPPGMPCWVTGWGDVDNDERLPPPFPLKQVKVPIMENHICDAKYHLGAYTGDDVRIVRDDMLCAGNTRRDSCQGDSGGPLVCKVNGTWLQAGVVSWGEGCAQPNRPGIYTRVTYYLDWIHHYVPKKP

N=C(N)c1ccc(CCc2nc3cc(C(=O)N(Cc4ccc(Cl)cc4)Cc4ccc(CN)cc4)ccc3n2CC2CCCO2)cc1 (centres unmarked) [Example 194, 2-[2-(4-amidinophenyl)ethyl]-1-(tetrahydrofuran-2-yl-methyl)-benzimidazol-5-yl-carboxylic acid-N-[4-(amino-methyl)-benzyl]-N-(4-chlorbenzyl)-amide]
% Inhibition (10 μM) [1]: 61%

CCOCCCn1c(CCc2ccc(C(=N)N)cc2)nc2cc(C(=O)N(Cc3ccc(CN)cc3)Cc3cccc(C(F)(F)F)c3)ccc21 [Example 198, 2-[2-(4-amidinophenyl)ethyl]-1-(3-ethoxypropyl)-benzimidazol-5-yl-carboxylic acid-N-[4-(amino-methyl)-benzyl]-N-(3-trifluoromethylbenzyl)-amide]
IC50: 0.458 µM
inhibition at 10 µM [1]: 63%

N=C(N)c1ccc(CCc2nc3cc(C(=O)N(Cc4ccc(CN)cc4)Cc4cccc(C(F)(F)F)c4)ccc3n2CCCNC(=O)Cc2ccccc2)cc1 [Example 200, 2-[2-(4-amidinophenyl)ethyl]-1-[3-(benzylcarbonylamino)-propyl]-benzimidazol-5-yl-carboxylic acid-N-[4-(amino-methyl)-benzyl]-N-(3-trifluoromethylbenzyl)-amide]
inhibition at 10 µM [1]: 69%

N=C(N)c1ccc(CCc2nc3cc(C(=O)N(Cc4ccc(CN)cc4)Cc4cccc(C(F)(F)F)c4)ccc3n2CC2CC2)cc1 [Example 202, 2-[2-(4-amidinophenyl)ethyl]-1-cyclopropylmethyl-benzimidazol-5-yl-carboxylic acid-N-[4-(amino-methyl)-benzyl]-N-(3-trifluoromethylbenzyl)-amide]
IC50: 0.822 µM
inhibition at 10 µM [1]: 58%

N=C(N)c1ccc(CCc2nc3cc(C(=O)N(Cc4ccc(CN)cc4)Cc4cccc(C(F)(F)F)c4)ccc3n2CCc2ccccc2)cc1 [Example 203, 2-[2-(4-amidinophenyl)ethyl]-1-(2-phenylethyl)-benzimidazol-5-yl-carboxylic acid-N-[4-(amino-methyl)-benzyl]-N-(3-trifluoromethylbenzyl)-amide]
inhibition at 10 µM [1]: 53%

N=C(N)c1ccc(CCc2nc3cc(C(=O)N(Cc4ccc(CN)cc4)Cc4cccc(C(F)(F)F)c4)ccc3n2CCCN2CCOCC2)cc1 [Example 209, 2-[2-(4-amidinophenyl)ethyl]-1-[3-(morpholin-4-yl)-propyl]-benzimidazol-5-yl-carboxylic acid-N-[4-(amino-methyl)-benzyl]-N-(3-trifluoromethylbenzyl)-amide]
inhibition at 10 µM [1]: 61%

N=C(N)c1ccc(CCc2nc3cc(C(=O)N(Cc4ccc(CN)cc4)Cc4cccc(C(F)(F)F)c4)ccc3n2CC2CCCO2)cc1 (centres unmarked) [Example 210, 2-[2-(4-amidinophenyl)ethyl]-1 (tetrahydrofuran-2-yl-methyl)-benzimidazol-5-yl-carboxylic acid-N-[4-(amino-methyl)-benzyl]-N-(3-trifluoromethylbenzyl)-amide]
inhibition at 10 µM [1]: 59%

CCOCCCn1c(CCc2ccc(C(=N)N)cc2)nc2cc(C(=O)N(Cc3ccc(CN)cc3)Cc3ccccc3F)ccc21 [Example 214, 2-[2-(4-amidinophenyl)ethyl]-1-(3-ethoxypropyl)-benzimidazol-5-yl-carboxylic acid-N-[4-(amino-methyl)-benzyl]-N-(2-fluorobenzyl)-amide]
IC50: 0.335 µM
inhibition at 10 µM [1]: 54%

N=C(N)c1ccc(CCc2nc3cc(C(=O)N(Cc4ccc(CN)cc4)Cc4ccccc4F)ccc3n2CCCNC(=O)Cc2ccccc2)cc1 [Example 216, 2-[2-(4-amidinophenyl)ethyl]-1-[3-(benzylcarbonylamino)-propyl]-benzimidazol-5-yl-carboxylic acid-N-[4-(amino-methyl)-benzyl]-N-(2-fluorobenzyl)-amide]
inhibition at 10 µM [1]: 65%

N=C(N)c1ccc(CCc2nc3cc(C(=O)N(Cc4ccc(CN)cc4)Cc4ccccc4F)ccc3n2CCc2ccccc2)cc1 [Example 219, 2-[2-(4-amidinophenyl)ethyl]-1-(2-phenylethyl)-benzimidazol-5-yl-carboxylic acid-N-[4-(amino-methyl)-benzyl]-N-(2-fluorobenzyl)-amide]
inhibition at 10 µM [1]: 51%

N=C(N)c1ccc(CCc2nc3cc(C(=O)N(Cc4ccc(CN)cc4)Cc4ccccc4F)ccc3n2CC2CCCO2)cc1 (centres unmarked) [Example 226, 2-[2-(4-amidinophenyl)ethyl]-1-(tetrahydrofuran-2-yl-methyl)-benzimidazol-5-yl-carboxylic acid-N-[4-(amino-methyl)-benzyl]-N-(2-fluorobenzyl)-amide]
inhibition at 10 µM [1]: 64%

CCOCCCn1c(CCc2ccc(C(=N)N)cc2)nc2cc(C(=O)N(Cc3ccc(CN)cc3)Cc3ccc4ccccc4c3)ccc21 [Example 230, 2-[2-(4-amidinophenyl)ethyl]-1-(3-ethoxypropyl)-benzimidazol-5-yl-carboxylic acid-N-[4-(amino-methyl)-benzyl]-N-(2-naphthylmethyl)-amide]
IC50: 0.153 µM
inhibition at 10 µM [1]: 61%

CCCCN(CCCC)CCCn1c(CCc2ccc(C(=N)N)cc2)nc2cc(C(=O)N(Cc3ccc(CN)cc3)Cc3ccc4ccccc4c3)ccc21 [Example 231, 2-[2-(4-amidinophenyl)ethyl]-1-(3-di-n-butylaminopropyl)-benzimidazol-5-yl-carboxylic acid-N-[4-(amino-methyl)-benzyl]-N-(2-naphthylmethyl)-amide]
inhibition at 10 µM [1]: 54%

N=C(N)c1ccc(CCc2nc3cc(C(=O)N(Cc4ccc(CN)cc4)Cc4ccc5ccccc5c4)ccc3n2CCCNC(=O)Cc2ccccc2)cc1 [Example 232, 2-[2-(4-amidinophenyl)ethyl]-1-[3-(benzylcarbonylamino)-propyl]-benzimidazol-5-yl-carboxylic acid-N-[4-(amino-methyl)-benzyl]-N-(2-naphthylmethyl)-amide]
inhibition at 10 µM [1]: 58%

N=C(N)c1ccc(CCc2nc3cc(C(=O)N(Cc4ccc(CN)cc4)Cc4ccc5ccccc5c4)ccc3n2CCC2CCCCC2)cc1 [Example 233, 2-[2-(4-amidinophenyl)ethyl]-1-(2-cyclohexylethyl)-benzimidazol-5-yl-carboxylic acid-N-[4-(amino-methyl)-benzyl]-N-(2-naphthylmethyl)-amide]
inhibition at 10 µM [1]: 53%

N=C(N)c1ccc(CCc2nc3cc(C(=O)N(Cc4ccc(CN)cc4)Cc4ccc5ccccc5c4)ccc3n2CC2CC2)cc1 [Example 234, 2-[2-(4-amidinophenyl)ethyl]-1-cyclopropylmethyl-benzimidazol-5-yl-carboxylic acid-N-[4-(amino-methyl)-benzyl]-N-(2-naphthylmethyl)-amide]
IC50: 0.76 µM

N=C(N)c1ccc(CCc2nc3cc(C(=O)N(Cc4ccc(CN)cc4)Cc4ccc5ccccc5c4)ccc3n2CCc2ccccc2)cc1 [Example 235, 2-[2-(4-amidinophenyl)ethyl]-1-(2-phenylethyl)-benzimidazol-5-yl-carboxylic acid-N-[4-(amino-methyl)-benzyl]-N-(2-naphthylmethyl)-amide]
inhibition at 10 µM [1]: 52%

Cc1ccc(Cn2c(CCc3ccc(C(=N)N)cc3)nc3cc(C(=O)N(Cc4ccc(CN)cc4)Cc4ccc5ccccc5c4)ccc32)cc1 [Example 237, 2-[2-(4-amidinophenyl)ethyl]-1-(4-methylbenzyl)-benzimidazol-5-yl-carboxylic acid-N-[4-(amino-methyl)-benzyl]-N-(2-naphthylmethyl)-amide]
inhibition at 10 µM [1]: 52%

N=C(N)c1ccc(CCc2nc3cc(C(=O)N(Cc4ccc(CN)cc4)Cc4ccc5ccccc5c4)ccc3n2CCCN2CCOCC2)cc1 [Example 241, 2-[2-(4-amidinophenyl)ethyl]-1-[3-(morpholin-4-yl)-propyl]-benzimidazol-5-yl-carboxylic acid-N-[4-(amino-methyl)-benzyl]-N-(2-naphthylmethyl)-amide]
inhibition at 10 µM [1]: 69%

N=C(N)c1ccc(CCc2nc3cc(C(=O)N(Cc4ccc(CN)cc4)Cc4ccc5ccccc5c4)ccc3n2CC2CCCO2)cc1 (centres unmarked) [Example 242, 2-[2-(4-amidinophenyl)ethyl]-1-(tetrahydrofuran-2-yl-methyl)-benzimidazol-5-yl-carboxylic acid-N-[4-(amino-methyl)-benzyl]-N-(2-naphthylmethyl)-amide]
inhibition at 10 µM [1]: 63%

CCOCCCn1c(CCc2ccc(C(=N)N)cc2)nc2cc(C(=O)N(CCN)Cc3cccc(OC)c3)ccc21 [Example 262, 2-[2-(4-amidinophenyl)ethyl]-1-(3-ethoxypropyl)-benzimidazol-5-yl-carboxylic acid-N-(2-aminoethyl)-N-(3-methoxybenzyl)-amide]
IC50: 0.284 µM
inhibition at 10 µM [1]: 58%

COc1cccc(CN(CCN)C(=O)c2ccc3c(c2)nc(CCc2ccc(C(=N)N)cc2)n3CC2CC2)c1 [Example 266, 2-[2-(4-amidinophenyl)ethyl]-1-cyclopropylmethyl-benzimidazol-5-yl-carboxylic acid-N-(2-aminoethyl)-N-(3-methoxybenzyl)-amide]
IC50: 0.641 µM
inhibition at 10 µM [1]: 61%

COc1cccc(CN(CCN)C(=O)c2ccc3c(c2)nc(CCc2ccc(C(=N)N)cc2)n3CC2CCCO2)c1 (centres unmarked) [Example 274, 2-[2-(4-amidinophenyl)ethyl]-1-(tetrahydrofuran-2-yl-methyl)-benzimidazol-5-yl-carboxylic acid-N-(2-aminoethyl)-N-(3-methoxybenzyl)-amide]
inhibition at 10 µM [1]: 57%

CCCCN(CCN)C(=O)c1ccc2c(c1)nc(CCc1ccc(C(=N)N)cc1)n2CCCOCC [Example 278, 2-[2-(4-amidinophenyl)ethyl]-1-(3-ethoxypropyl)-benzimidazol-5-yl-carboxylic acid-N-(2-aminoethyl)-N n-butyl-amide]
IC50: 0.251 µM
inhibition at 10 µM [1]: 83%

CCCCN(CCCC)CCCn1c(CCc2ccc(C(=N)N)cc2)nc2cc(C(=O)N(CCN)CCCC)ccc21 [Example 279, 2-[2-(4-amidinophenyl)ethyl]-1-(3-di-n-butylaminopropyl)-benzimidazol-5-yl-carboxylic acid-N-(2-aminoethyl)-N-n-butyl-amide]
inhibition at 10 µM [1]: 60%
